Measured values: patent US6632797B2, “Method of treating angiogenesis” (priority 1996, dated 2003)

Assays:
[1] = test system: phosphatidyl inositol 3′ kinase (PI 3′-kinase); assay: Interstitial fluid pressure (PIF) in rat hind paw, wortmannin-induced decrease; type: in vivo, Wistar Möller rats; parameters: PIF (interstitial fluid pressure): dose or concentration left out as unconfirmed; settings: wortmannin in DMSO/saline, 5 μl subdermally; after 30 minutes; vehicle ca −0.7 mm Hg
Source text: The enzyme phosphatidyl inositol 3′ kinase (PI 3′-kinase) is implicated in a number of growth factor induced responses such as mitogenesis, chemotaxis, membrane ruffling and the balance between osteoclasts and osteoblasts. Furthermore it is known that inactivation of PI 3′ kinase leads to increased oedema formation expressed as a decrease of interstitial fluid pressure (PIF) in animal models.
An inhibitor of PI 3′ kinase such as wortmannin renders a decrease of PIF as a consequence of inactivation of PI 3′ kinase.
The measurements were performed on female Wistar Möller rats (200-250 g), anesthetized with pentobarbital (50 mg/kg i.p.).
PIF was measured on the dorsal side of the hind paw with sharpened glass capillarier (tip diameter 2-7 μm) filled with 0.5 M NaCl coloured with Evans Blue and connected to a serve-controlled counter pressure system. The punctures were performed through intact skin using a stereomicroscope. The pipette-tip was located 0.3-0.5 mm below the skin. Pressure measurements were made 2.5-3.0 mm from the center of injection. The normal transcapillary pressure gradient is about 0.5 mm Hg.
Three sets of experiments were performed with six animals in each set.
In the first set of experiment the vehicle for wortmannin, DMSO diluted in saline, 5 μl, was injected subdermally using a chromatography syringe. […]

[2] = Binding constants to the polyamine spermine; type: physicochemical; settings: 1:1:5 complex; 0.1 M N-tetramethylbromide at 25° C.
Protocol: The interaction between a polyamine, spermine and different triphosphorylated compounds were investigated in order to determin the binding constants. Spermine is a basic polyamine comprising domains of similar basicity to basic domains in growth factors. Spermine and the different phosphorylated compounds forms different complexes and the 1:1:5 complex was used as the complex for determination of binding constants.
The following binding constants, log Ks was determined in 0.1 M N-tetramethylbromide at 25° C.: […]

[3] = test system: carrageenan-induced inflammation; assay: Carrageenan-induced paw inflammation in mice (plethysmometer); type: in vivo; settings: intravenous injection before carrageenan (64 mg/kg stated for PP35-405); after 3.5 hrs
Protocol: Growth factors are implicated to participate in inflammatory conditions. Carrageenan (0.1 ml, 1%) was injected intraplantarly in one hind paw of two groups of mice, five animals in each group.
An intravenous injection of 64 mg/kg of 1,2-O-ethylene-β-D-fructopyranoside-2,3,4-trisphosphate (PP35-405) was administered immediately before the injection of carrageenan.
Injection of carrageenan induces inflammation which is measured by comparing the increase in paw volume using a plethysmometer.
In a procedure similar to the one described in Example 8, an intravenous injection of 1,5-dideoxy-1,5-imino-N-(2-phenylethyl)arabinitol-2,3,4-trisphosphate (PP35-508) was administered.
In a procedure similar to the one described in Example 8, an intravenous injection of myo-inositol-1,2,6-tris(carboxymethyl phosphonate) (PP40-402) was administered. 3.5 hrs after the injection of carrageenan the inflammation was retarded with 32% in the group recieving PP40-402. Thus the administration of PP40-402 markedly reduces the inflammatory condition.

[4] = test system: HIV (viral isolates from HIV-infected patients) in peripheral blood mononuclear cells (PBMC); assay: HIV infection of PBMC, HIV-antigen production by ELISA; type: cell-based; settings: normalized HIV-antigen production at day 7, control 100
Protocol: Growth factor activity is considered to be involved in the process of viral infections. Viral isolates from HIV-infected patients were used in order to induce an infection by adding peripheral blood mononuclear cells (PBMC) to a medium containing different concentrations of the sodium salt of D-3,4,5-tri-O-hexanoyl-myo-inositol-1,2,6-trisphosphate (PP10-202). 25 CCID50 (50% cell culture infections dose) of PBMC from HIV-infected patients were incubated with four different concentrations of PP10-202; 0.0625 mg/ml, 0.125 mg/ml, 0.250 mg/ml and 0.500 mg/ml. Another preparation, without any PP10-202 served as a control. The growth medium consisted of 10% fetal calf serum, […] glutamine, 100 IU/ml penicillin, 100 IU/ml streptomycin and 20 μg/ml gentamicin. The concentration of cells were 2×10^5 per ml. All preparations were incubated for 1 hour at 37° C.
PBMCs from healthy donors were then added to the preparation. Before addition, these cells were stimulated for three days with phytohemagglutinin (PHA). 0.5×10^6 PHA-stimulated PBMCs were added to each preparation, followed by incubation for 3 hours at 37° C. After extensive washing the cells were resuspended in growth medium supplemented with 10 IU/ml of interleukin-2 and seeded in quadruplicates of 100.000 cells in a 96-well microtite plate before further cultivation for 7 days. The HIV-antigen production was assayed at the seventh day using an ELISA-technique.

[5] = test system: acetic acid-induced writhes; assay: Acetic acid writhing test (analgetic effect); type: in vivo, mice; settings: 64 mg/kg intravenous, sodium salt; 10-minute observation
Protocol: Two groups of mice, 10 animals per group, were used in order to investigate the analgetic effect of methyl α-D-rhamnopyranoside-2,3,4-trisphosphate (PP 35-406). The control group was given an intravenous dose of saline while the other group was given a dose of 64 mg/kg of the sodium salt of PP 35-406. Three minutes after intravenous dosing, each […] received an intraperitoneal injection of 1 ml of a 1% (w/w) solution of acetic acid. Directly after that procedure each animal was placed into individual observation chambers and the numbers of writhes elicited during the subsequent 10-minute period were recorded. After the observation period the animals were killed by cervical dislocation. The number of writhes during the observation period is an expression of the pain experienced by the animal. Percent protection was calculated as follows: […]((number of writhes in control group—number of writhes in treated animals)/(number of writhes in control group).

| log Ks [2] | Molecule | inflammation retarded (increase in paw volume) [3] | further results |
| --- | --- | --- | --- |
| – | COC[C@H]1OC(=O)c2coc3c2[C@@]1(C)C1=C(C3=O)[C@@H]2CCC(=O)[C@@]2(C)C[C@H]1OC(C)=O [wortmannin, reference compound] | – | PIF (interstitial fluid pressure) [1]: −2.5 mm Hg |
| 5.36 | Methyl-6-O-butyl-α-D-mannopyranoside 2,3,4-trisphosphate [PP35-402] | – | – |
| – | 1,2-O-ethylene-β-D-fructopyranoside-2,3,4-trisphosphate [PP35-405] | 51% | – |
| 4.20 | CCCCCC(=O)O[C@@H]1[C@@H](OC(=O)CCCCC)[C@@H](OP(=O)(O)O)[C@@H](OP(=O)(O)O)[C@H](OP(=O)(O)O)[C@H]1OC(=O)CCCCC [PP10-202, D-3,4,5-tri-O-hexanoyl-myo-inositol-1,2,6-trisphosphate] | – | HIV-infection ([4]; 0.0625 mg/ml): 75%; HIV-infection ([4]; 0.125 mg/ml): 41%; HIV-infection ([4]; 0.250 mg/ml): 33%; HIV-infection ([4]; 0.500 mg/ml): 20% |
| – | O=C(O)CP(=O)(O)OC1C(O)C(O)C(O)C(OP(=O)(O)CC(=O)O)C1OP(=O)(O)CC(=O)O (stereo not drawn) [PP40-402, myo-inositol-1,2,6-tris(carboxymethyl phosphonate)] | 32% | – |
| 4.71 | O=C(Nc1ccccc1)O[C@@H]1[C@@H](OC(=O)Nc2ccccc2)[C@@H](OP(=O)(O)O)[C@@H](OP(=O)(O)O)[C@H](OP(=O)(O)O)[C@H]1OC(=O)Nc1ccccc1 [PP11-201, D-3,4,5-tri-O-phenylcarbamoyl-myo-inositol-1,2,6-trisphosphate] | – | – |
| – | O=P(O)(O)OC1CN(CCc2ccccc2)CC(OP(=O)(O)O)C1OP(=O)(O)O (stereo not drawn) [PP35-508, 1,5-dideoxy-1,5-imino-N-(2-phenylethyl)arabinitol-2,3,4-trisphosphate] | 27% | – |
| – | CO[C@H]1O[C@H](C)[C@@H](OP(=O)(O)O)[C@H](OP(=O)(O)O)[C@@H]1OP(=O)(O)O [PP 35-406, methyl α-D-rhamnopyranoside-2,3,4-trisphosphate] | – | Percent protection (number of writhes) [5]: 19% |
